Reference: BindingDB's records for patent US20260060961 (Jazz Pharmaceuticals Ireland, 2026)
pIC50: −log10 of the molar value.

Target: GTPase KRas [G12C] (Homo sapiens, UniProt P01116, G12C)
Assay: HTRF Nucleotide Exchange Assay
Description: The capacity of compounds to bind KRAS G12C and KRAS wildtype was quantified using a HTRF nucleotide exchange assay. Recombinant human KRAS protein (5 nM; aa1-188 KRAS WT or KRAS containing the G12C amino acid substitution, an N-terminal 6×His-tag and leader sequence), and 2 nM Europium-labeled anti-6×His antibody were mixed in assay buffer (10 mM HEPES pH7.3, 75 mM NaCl, 5 mM MgCl2, 0.05% BSA, 0.0025% NP-40 and 100 mM KF) with various concentrations of compound in a 384-well plate and a volume of 5 μL. After a 180 minute incubation at room temperature, 5 μl of 200 nM EDA-GTP-DY647P1 diluted in assay buffer was added to the plate. Following 30-minute incubation at room temperature, time-resolved fluorescence was measured on a PerkinElmer Envision plate reader. DMSO (0.3%) and unlabeled GDP (1 μM) or equivalent tool compound were used to generate the Max and Min assay signals, respectively. Data was analysed using a four-parameter logistic model to calculate IC50 values, with at least two independent replicates were performed for each compound.

GTPase KRas [G12C], sequence (P01116 whole entry G12C): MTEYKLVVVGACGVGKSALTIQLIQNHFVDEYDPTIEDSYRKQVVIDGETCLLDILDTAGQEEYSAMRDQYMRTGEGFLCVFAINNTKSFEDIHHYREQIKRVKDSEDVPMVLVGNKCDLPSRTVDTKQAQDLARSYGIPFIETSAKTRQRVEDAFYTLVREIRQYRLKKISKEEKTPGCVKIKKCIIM

pIC50	SMILES
> 6.00	C=CC(=O)N1CC2(CC(c3nc(-c4ccc(OCC(=O)N5CCOCC5)cc4)c(-c4cc(O)cc5ccccc45)n3C)C2)C1 [US20260060961, Example 29]
< 5.00	C=CC(=O)N1CC2(CC(c3nc(-c4ccc5c(cnn5C)c4)c(-c4cccc5ccccc45)n3C)C2)C1 [US20260060961, Example 34]
